Values joined by “and” are separate entries in the source; they are usually repeats but may differ in a detail not shown here. Equal entries are not always repeated.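 Grown in 96-well plates, cells were treated for 48 hours with each compound at five concentrations. Insufficient inhibition: endpoint recorded as highest concentration tested. GI50 = concentration required for 50% inhibition of growth. TGI: concentration producing complete growth inhibition.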 Where a SMILES comes first, the peptide text is derived from it. The star is where a group is joined. Palmitoyl = CCCCCCCCCCCCCCCC(=O)*
Assays:
Assay in all cases: NCI anticancer screen, dose series, 48 h
NCI/ADR-RES ovarian = system: NCI/ADR-RES ovarian
COLO 205 colon = system: COLO 205 colon
RXF 393 renal = system: RXF 393 renal
NCI-H522 lung = system: NCI-H522 lung
SK-MEL-28 melanoma = system: SK-MEL-28 melanoma
HT29 colon = system: HT29 colon
EKVX NSCLC = system: EKVX NSCLC
CCRF-CEM leukemia = system: CCRF-CEM leukemia
A549 NSCLC = system: A549 NSCLC
ACHN renal = system: ACHN renal

SMILES	TGI (NCI/ADR-RES ovarian)	TGI (COLO 205 colon)	GI50 (RXF 393 renal)	TGI (RXF 393 renal)	TGI (NCI-H522 lung)	TGI (SK-MEL-28 melanoma)	TGI (HT29 colon)	TGI (EKVX NSCLC)	GI50 (CCRF-CEM leukemia)	TGI (CCRF-CEM leukemia)	TGI (A549 NSCLC)	TGI (ACHN renal)	GI50 (NCI/ADR-RES ovarian)	GI50 (COLO 205 colon)	GI50 (NCI-H522 lung)	GI50 (SK-MEL-28 melanoma)	GI50 (HT29 colon)	GI50 (EKVX NSCLC)	GI50 (A549 NSCLC)
C=CC1(C)CC(=O)C2(O)C(C)(O1)C(OC(C)=O)C(O)C1C(C)(C)CCC(O)C12C (configuration not stated)	> 130 µM	> 122 µM	4.98 µM	90.6 µM and > 119 µM	> 150 µM	> 150 µM	> 150 µM	> 150 µM	> 65.8 µM	> 150 µM	> 150 µM								
CN1Cc2c(nc(-c3ccccc3)c[n+]2[O-])N(C)C1		> 100 µM			> 100 µM	> 100 µM	> 100 µM	> 100 µM		> 100 µM	> 100 µM	> 100 µM							
C=C(CN(C)C)C(=O)c1ccc(C(=O)C(=C)CN(C)C)cc1		> 100 µM		> 100 µM	> 100 µM	> 100 µM	> 100 µM	> 100 µM		> 100 µM	> 100 µM	> 100 µM							
COc1cc(Nc2ccc3c(c2)CCC3)nc(OC)n1	65.5 µM	> 100 µM			84.5 µM	> 100 µM	51.4 µM	> 100 µM		> 100 µM	> 100 µM	73.7 µM							
CNc1[nH]c(=S)nc2sc3c(c12)CCCC3	> 75 µM	> 75 µM		> 75 µM	> 75 µM	> 75 µM	> 75 µM	> 75 µM				> 75 µM							
Cc1cc(C)nc(NC(=S)Nc2ccc([N+](=O)[O-])cc2)c1	> 100 µM	> 100 µM		> 100 µM		> 100 µM	> 100 µM	> 100 µM		> 100 µM		> 100 µM							
CCOC(=O)c1c2cccccc-2nc1Nc1cccc2c(C)ccnc12	> 10 µM	> 10 µM		> 10 µM		> 10 µM	> 10 µM	> 10 µM		> 10 µM	> 10 µM	> 10 µM							
Cc1c2c(c(C)n1-c1ccccc1)C(=O)N(CCN1CCN(c3cccc(C(F)(F)F)c3)CC1)C2=O	> 100 µM	> 100 µM		> 100 µM	> 100 µM		> 100 µM	> 100 µM			> 100 µM	> 100 µM							
O[C@H]1[C@H](O)[C@@H](O)CN2CC[C@H](O)[C@H]12	> 100 µM	> 100 µM		> 100 µM	> 100 µM	> 100 µM	> 100 µM	> 100 µM		> 100 µM	> 100 µM								
Clc1sc(Cl)c2c1[C@@H](Cl)C[C@@H]2Br		> 100 µM		> 100 µM	> 100 µM	> 100 µM	> 100 µM	> 100 µM		88.1 µM	> 100 µM	> 100 µM							
O=C(OCC(Cl)(Cl)Cl)N1CC[C@H](C2CCCCC2)C1	28.5 µM	39 µM		36.8 µM	32.5 µM			32.4 µM		36.1 µM	36.1 µM	36.7 µM							
C=C(C)CNCCN	> 100 µM			> 100 µM	> 100 µM	> 100 µM	> 100 µM	> 100 µM		> 100 µM	> 100 µM	> 100 µM							
CCCCCCCCCCCCCCCC(=O)N1CCCC1C(=O)NCC(=O)NC(Cc1ccccc1)C(=O)N1CCCC1C(=O)NC(CO)C(=O)NC(Cc1ccc(O)cc1)C(=O)NC(CCCCN)C(=O)NC(CC(C)C)C(=O)NC(CCCN=C(N)N)C(=O)N1CCCC1C(=O)NCC(N)=O (configuration not stated) (Palmitoyl-PGFPSYKLRPG-NH2; configuration not given here)	39.2 µM	33.3 µM	23.2 µM	53 µM	60.3 µM	50.3 µM	29.3 µM	44.5 µM	17 µM	33.8 µM	35.4 µM		18.2 µM	10.3 µM	25.1 µM	13.9 µM	15.8 µM	15.7 µM	17.5 µM
Cc1ccnc(NC(=S)Nc2ccc([N+](=O)[O-])cc2)c1	> 100 µM			> 100 µM		> 100 µM	> 100 µM	> 100 µM		> 100 µM		> 100 µM							
O=C1c2cccc3cccc(c23)C(=O)N1CCCNCCCCNCCCNCCCN1C(=O)c2cccc3cccc(c23)C1=O	49.6 µM			1.44 µM		2.95 µM	1.15 µM	5.67 µM		> 100 µM	1.39 µM	7.43 µM							
C=C(C)[C@H]1C2=CC(C(=O)OC)=C(C[C@H](C(=C)C)[C@@H](O)[C@@H](O)C3=C[C@H]1OC3=O)O2	> 100 µM	> 100 µM		> 100 µM	> 100 µM		> 100 µM	> 100 µM		> 100 µM	> 100 µM	> 100 µM							

Source: PubChem BioAssay (NCI)
